We go through 14 compounds from PubChem BioAssay AID256 (DTP/NCI, 2004).

Structures are written as SMILES. Where “and” joins values, the source holds several entries; their conditions need not be identical. Identical values can stand only once. Toxic doses and inconclusive results are not listed.

This assay deals with CD2F1 mice, L1210 leukemia ip, survival T/C. Description: NCI In Vivo Anticancer Drug Screen. Data for tumor model L1210 Leukemia (intraperitoneal) in CD2F1 (CDF1) mice. As to conditions: higher = longer survival. The essentials: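 Each value reflects a quotient of treated over vehicle control outcomes in mice with a transplanted tumor.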
[1] abbreviates: endpoint: mean survival time, dose: 100.0 mg/kg/injection, schedule: Q01DX009 (ip), vehicle: saline with Tween-80.
Setting [2] is: endpoint: mean survival time, dose: 100.0 mg/kg/injection, schedule: Q04DX003 (ip), vehicle: saline with Tween-80.
[3] abbreviates: endpoint: mean survival time, dose: 200.0 mg/kg/injection, schedule: Q01DX009 (ip), vehicle: saline with Tween-80.
Setting [4] is: endpoint: mean survival time, dose: 200.0 mg/kg/injection, schedule: Q04DX003 (ip), vehicle: saline with Tween-80.
Setting [5] is: endpoint: mean survival time, dose: 400.0 mg/kg/injection, schedule: Q01DX009 (ip), vehicle: saline with Tween-80.
[6] abbreviates: endpoint: mean survival time, dose: 400.0 mg/kg/injection, schedule: Q04DX003 (ip), vehicle: saline with Tween-80.
Setting [7] is: endpoint: mean survival time, dose: 12.5 mg/kg/injection, schedule: Q01DX009 (ip), vehicle: saline with Tween-80.

As for `O=NN(CCCl)C(=O)NCCO`, the T/C runs as follows: (endpoint: mean survival time, dose: 2.5 mg/kg/injection, schedule: Q01DX001 (ip), vehicle: water) 120 % of control; (endpoint: mean survival time, dose: 3.13 mg/kg/injection, schedule: Q01DX009 (ip), vehicle: water) 355 % of control; (endpoint: mean survival time, dose: 5.0 mg/kg/injection, schedule: Q01DX001 (ip), vehicle: water) 158 % of control; (endpoint: mean survival time, dose: 6.25 mg/kg/injection, schedule: Q01DX009 (ip), vehicle: water) 242 % of control; (endpoint: mean survival time, dose: 10.0 mg/kg/injection, schedule: Q01DX001 (ip), vehicle: water) 166 % of control and 411 % of control; (endpoint: mean survival time, dose: 12.5 mg/kg/injection, schedule: Q01DX009 (ip), vehicle: water) 187 % of control. Also, the T/C (endpoint: mean survival time, dose: 20.0 mg/kg/injection, schedule: Q01DX001 (ip), vehicle: water) was 333 % of control and 491 % of control; the T/C (endpoint: mean survival time, dose: 25.0 mg/kg/injection, schedule: Q01DX009 (ip), vehicle: water) was 101 % of control; the T/C (endpoint: median survival time, dose: 0.75 mg/kg/injection, schedule: Q01DX009 (ip), vehicle: water) was 164 % of control; the T/C (endpoint: median survival time, dose: 0.78 mg/kg/injection, schedule: Q01DX009 (ip), vehicle: water) was 241 % of control; the T/C (endpoint: median survival time, dose: 1.5 mg/kg/injection, schedule: Q01DX009 (ip), vehicle: water) was 223 % of control; the T/C (endpoint: median survival time, dose: 1.56 mg/kg/injection, schedule: Q01DX009 (ip), vehicle: water) is 198 % of control. The T/C by setting is: (endpoint: median survival time, dose: 1.57 mg/kg/injection, schedule: Q01DX009 (ip), vehicle: water) 275 % of control; (endpoint: median survival time, dose: 3.0 mg/kg/injection, schedule: Q01DX009 (ip), vehicle: water) 352 % of control; (endpoint: median survival time, dose: 3.12 mg/kg/injection, schedule: Q01DX009 (ip), vehicle: water) 308 % of control; (endpoint: median survival time, dose: 3.13 mg/kg/injection, schedule: Q01DX009 (ip), vehicle: water) 375 % of control; (endpoint: median survival time, dose: 6.0 mg/kg/injection, schedule: Q01DX009 (ip), vehicle: water) 268 % of control; (endpoint: median survival time, dose: 6.25 mg/kg/injection, schedule: Q01DX009 (ip), vehicle: water) 212 % of control and 262 % of control. The T/C runs as follows: (endpoint: median survival time, dose: 12.0 mg/kg/injection, schedule: Q01DX009 (ip), vehicle: water) 103 % of control; (endpoint: median survival time, dose: 12.5 mg/kg/injection, schedule: Q01DX009 (ip), vehicle: water) 114 % of control and 103 % of control; (endpoint: median survival time, dose: 25.0 mg/kg/injection, schedule: Q01DX009 (ip), vehicle: water) 97 % of control.
Turning to `O=C(CCBr)NCc1ccccc1`, the T/C is 97 % of control under setting [1]; 92 % of control under setting [2]; 98 % of control under setting [3]; 98 % of control under setting [4]; 97 % of control under setting [5]; 95 % of control under setting [6].
As to `Cc1nnc(-c2cn(C3OC(CO)C(O)C3O)c3ncnc(N)c23)nc1C` (stereo not given), the T/C runs as follows: (endpoint: mean survival time, dose: 100.0 mg/kg/injection, schedule: Q01DX005 (ip), vehicle: saline) 97 % of control; (endpoint: mean survival time, dose: 200.0 mg/kg/injection, schedule: Q01DX005 (ip), vehicle: saline) 96 % of control.
`CN1CCCN(C)C1`: the T/C is 97 % of control (endpoint: mean survival time, dose: 75.0 mg/kg/injection, schedule: Q01DX001 (ip), vehicle: saline); 97 % of control (endpoint: mean survival time, dose: 150.0 mg/kg/injection, schedule: Q01DX001 (ip), vehicle: saline); 102 % of control (endpoint: mean survival time, dose: 300.0 mg/kg/injection, schedule: Q01DX001 (ip), vehicle: saline).
As to `Nc1nc(-c2ccc([N+](=O)[O-])cc2)c([N+](=O)[O-])c(=O)[nH]1`, the T/C reads like this: (endpoint: mean survival time, dose: 3.13 mg/kg/injection, schedule: Q01DX009 (ip), vehicle: saline with Tween-80) 96 % of control; (endpoint: mean survival time, dose: 6.25 mg/kg/injection, schedule: Q01DX009 (ip), vehicle: saline with Tween-80) 95 % of control; (endpoint: mean survival time, dose: 12.5 mg/kg/injection, schedule: Q01DX001 (ip), vehicle: saline with Tween-80) 94 % of control; under setting [7], 95 % of control.
Take `CC(=O)Oc1ccccc1O`: the T/C (endpoint: median survival time, dose: 12.5 mg/kg/injection, schedule: Q01DX009 (ip), vehicle: saline + Tween-80 + alcohol) was 96 % of control and 103 % of control; the T/C (endpoint: median survival time, dose: 25.0 mg/kg/injection, schedule: Q01DX009 (ip), vehicle: saline + Tween-80 + alcohol) was 101 % of control and 109 % of control.
Take `CC1(C)N=C(N)N=C(N)N1c1ccc(CCCCc2cccc(S(=O)(=O)F)c2)c(Cl)c1`: the T/C was 98 % of control (endpoint: mean survival time, dose: 2.5 mg/kg/injection, schedule: Q01DX009 (ip), vehicle: saline with Tween-80); 104 % of control (endpoint: mean survival time, dose: 5.0 mg/kg/injection, schedule: Q01DX009 (ip), vehicle: saline with Tween-80); 89 % of control (endpoint: mean survival time, dose: 6.25 mg/kg/injection, schedule: Q04DX003 (ip), vehicle: saline sonified); 103 % of control (endpoint: mean survival time, dose: 10.0 mg/kg/injection, schedule: Q01DX009 (ip), vehicle: saline with Tween-80); 93 % of control (endpoint: mean survival time, dose: 12.5 mg/kg/injection, schedule: Q04DX003 (ip), vehicle: saline sonified); 112 % of control (endpoint: mean survival time, dose: 20.0 mg/kg/injection, schedule: Q01DX009 (ip), vehicle: saline with Tween-80). For the same compound, the T/C (endpoint: mean survival time, dose: 25.0 mg/kg/injection, schedule: Q04DX003 (ip), vehicle: saline sonified) is 96 % of control.
Consider `O=C(O)c1cccc(-c2ccccc2)c1`, for which the T/C was 104 % of control (endpoint: mean survival time, dose: 100.0 mg/kg/injection, schedule: Q01DX009 (ip), vehicle: saline); 154 % of control (endpoint: mean survival time, dose: 200.0 mg/kg/injection, schedule: Q01DX009 (ip), vehicle: saline); 93 % of control (endpoint: mean survival time, dose: 400.0 mg/kg/injection, schedule: Q01DX009 (ip), vehicle: saline).
Consider `CC(=O)CC(=O)c1ccccc1.CC(=O)CC(=O)c1ccccc1.CC(=O)CC(=O)c1ccccc1.[Cr]`, for which the T/C reads like this: (endpoint: median survival time, dose: 50.0 mg/kg/injection, schedule: Q04DX002 (ip), vehicle: saline with Tween-80) 88 % of control; (endpoint: median survival time, dose: 100.0 mg/kg/injection, schedule: Q04DX002 (ip), vehicle: saline with Tween-80) 88 % of control; (endpoint: median survival time, dose: 200.0 mg/kg/injection, schedule: Q04DX002 (ip), vehicle: saline with Tween-80) 88 % of control; (endpoint: median survival time, dose: 400.0 mg/kg/injection, schedule: Q04DX002 (ip), vehicle: saline with Tween-80) 88 % of control.
As for `O=C(O)C1=CC=C(c2ccccc2)C(=O)C1`, the T/C is, setting by setting: under setting [7], 100 % of control; (endpoint: mean survival time, dose: 25.0 mg/kg/injection, schedule: Q01DX009 (ip), vehicle: saline with Tween-80) 98 % of control; (endpoint: mean survival time, dose: 50.0 mg/kg/injection, schedule: Q01DX009 (ip), vehicle: saline with Tween-80) 88 % of control and 90 % of control; (endpoint: mean survival time, dose: 100.0 mg/kg/injection, schedule: Q01DX001 (ip), vehicle: saline with Tween-80) 97 % of control; (endpoint: mean survival time, dose: 200.0 mg/kg/injection, schedule: Q01DX001 (ip), vehicle: saline with Tween-80) 93 % of control.
As to `Cc1ccc2nc(-c3cccc([N+](=O)[O-])c3)oc(=O)c2c1`, the T/C under setting [1] is 97 % of control, the T/C under setting [3] was 96 % of control and the T/C under setting [5] is 94 % of control.
As to `COc1ccccc1OC(=O)Nc1cc([N+](=O)[O-])ccc1C`, the T/C by setting is: under setting [2], 89 % of control; under setting [4], 97 % of control; under setting [6], 87 % of control.
As to `CCCC[CH2][Pb]([CH2]CCCC)([CH2]CCCC)[O]C(C)=O`, the T/C was 96 % of control (endpoint: mean survival time, dose: 0.25 mg/kg/injection, schedule: Q01DX009 (ip), vehicle: saline with Tween-80); 93 % of control (endpoint: mean survival time, dose: 0.5 mg/kg/injection, schedule: Q01DX009 (ip), vehicle: saline with Tween-80); 90 % of control (endpoint: mean survival time, dose: 1.0 mg/kg/injection, schedule: Q01DX009 (ip), vehicle: saline with Tween-80); 95 % of control (endpoint: mean survival time, dose: 1.0 mg/kg/injection, schedule: Q04DX003 (ip), vehicle: saline with Tween-80).
With `O=[N+]([O-])c1ccc(-c2cn3ccsc3n2)cc1`, the T/C (endpoint: mean survival time, dose: 100.0 mg/kg/injection, schedule: Q01DX001 (ip), vehicle: Klucel (hydroxypropylcellulose) (HPC)) was 87 % of control; the T/C (endpoint: mean survival time, dose: 200.0 mg/kg/injection, schedule: Q01DX001 (ip), vehicle: Klucel (hydroxypropylcellulose) (HPC)) was 90 % of control; the T/C (endpoint: mean survival time, dose: 400.0 mg/kg/injection, schedule: Q01DX001 (ip), vehicle: Klucel (hydroxypropylcellulose) (HPC)) was 90 % of control.
